The source of these data is PMC3025356, “Mechanism of the Ca^2+-Dependent Interaction between S100A4 and Tail Fragments of Nonmuscle Myosin Heavy Chain IIA” (Journal of Molecular Biology, 2011).

In one data set the test system is M200 filaments. Kind of data set: Stopped-flow turbidity, dissociation of M200 filaments on NaCl jump or dilution. Type of data set: biochemical, human. Here is the method: Fig. 9 Dissociation of M200 filaments by S100A4. (a) Initially, M200 was added (i) from a concentrated stock in 0.5 M NaCl to give a final concentration of 5 μM M200 (with respect to the polypeptide chain) in 100 mM NaCl, 10 mM Hepes, and 0.1 mM Ca^2+ at pH 7.5 and 20 °C. A biphasic rise in turbidity was recorded for 200 s (continuous line). Then 10 μM S100A4 (with respect to monomer concentration) was added (ii), followed by 0.2 mM EGTA (iii) and 1 mM Ca^2+ (iv). […] (b) M200 was diluted (i) into 100 mM NaCl to form filaments as in (a), then 5 μM S100A4 was added (ii), causing a 54% drop in turbidity. A further 5 μM S100A4 (iii) caused turbidity to fall to almost zero. (c) Stopped-flow records monitoring the dissociation of 5 μM M200 filaments on jumping [NaCl] from 100 mM to 120 mM NaCl. Other components of the buffer were 20 mM Hepes, 1 mM Mg^2+, and 100 μM Ca^2+ at pH 7.5 and 20 °C. […] In the presence of 20 μM S100A4 (lower trace), the turbidity decreased by 87% with a rate constant of 0.2 s^− 1.
It is of interest to know whether S100A4 drives depolymerisation solely by binding to free M monomer and allowing the polymer equilibrium to readjust (i.e., via k− 4 and k5), or whether S100A4 also binds to the filament bundle and actively depolymerises an M200 unit (via k6 and k− 7). […] In an attempt to address this question, the dissociation rate of the M200 filament was followed on jumping the NaCl concentration from 100 mM to 120 mM in the absence and in the presence of S100A4 (Fig. 9c). Under these conditions in the absence of S100A4, turbidity dropped to about 50% of its initial value with a profile fitted to a double exponential (k1obs = 0.33 s^− 1 with 12% amplitude and k2obs = 0.037 s^− 1 with 43% amplitude, relative to the total amplitude expected for a full dissociation). Therefore, at the end point of this reaction, the filament concentration decreased by about 2-fold (turbidity is proportional to concentration over this range; Fig. S5b). There should also be a corresponding rise in M200 monomer concentration, but this may be less than accounted for by the loss of filaments if the drop in turbidity was also associated with a rise in small M200 oligomers with a lower specific turbidity. […]

The conditions of data set [1]: 37 °C, 20 mM KCl, cited from earlier work. As to the method:
At 10 °C, the first site became associated with negative enthalpy but retained a ...

The target in another data set is NM-MHC IIA rods. The settings on record: 20 mM NaCl; cited from earlier work. From the text: Over the last two decades, there has been much interest in the role of the S100 Ca^2^+-binding protein family in the regulation of cellular events.[1,2] Identifying the specific targets of each of the 24 members[3] and deducing their mechanisms of action in vitro and in vivo remain to be a challenge. This is exemplified by S100A4 (also known as Mts1, metastasin, p9Ka, pEL98, calvasculin, and Fsp-1), which has been implicated in a wide range of cellular events and numerous diseases and binds to several different targets in vitro.[4–6] In particular, following early work,[7–9] there have been ma ...

In the next data set the test system is M200 filamentous bundles. Kind of data set: Electron microscopy of myosin IIA tail fragments. More on the design: species or system human. The conditions noted are these: two times stoichiometric S100A4, Ca^2+, 0.1 M Na-acetate. Here is the method: Fig. 8 Characterisation of myosin IIA coiled-coil tail fragments. Metal-shadowed electron micrographs of (a) M200 and (b) M111 deposited from 0.5 M ammonium acetate. Scale bar represents 50 nm. (c and d) Electron micrographs of a negatively stained M200 tail fragment. Fields of M200 (c) in the absence and (d) in the presence of a 2-fold molar excess of S100A4, respectively. Arrows point to individual strands emerging from images of filamentous bundles. The samples were prepared in 0.1 M sodium acetate buffer, where M200 formed large filamentous aggregates but were solubilised in the presence of S100A4. Scale bar represents 200 nm (see Materials and Methods for details).
For negative staining, the stock solution of the M200 tail fragment was diluted with a solution consisting of 0.1 M Na-acetate, 3 mM MgCl2, 0.1 mM CaCl2, 10 mM imidazole, and 5 mM NaH2PO4 (pH 7.0), with or without 14 μM S100A4, to give a final concentration of 7 μM M200. Following dilution, 5 μl of the mixture was applied to a grid with a thin carbon film supported by a holey carbon film, and the grid was negatively stained using 1% uranyl acetate. […] Images were recorded on a 2000 × 2000 F224HD slow-scan CCD camera (TVIPS, Gauting, Germany) at a magnification of 65,000× (0.37 nm pixel^− 1). The lengths of nonoverlapping well-shadowed molecules were measured as described by Burgess et al.[47]

Where two headings read alike, the source gives them in different places.

Take “S100A4: recombinant S100A4 expressed in E. coli BL21(DE3)”: the “decrease in turbidity on NaCl jump” value in the data set on M200 filaments (20 μM S100A4, 5 μM M200, 100 to 120 mM NaCl) came to 87%. For the same substance, in the data set on M200 filaments (20 μM S100A4, NaCl jump), the “initial rate relative to absence of S100A4” value is reported as “five times faster than in the absence of S100A4”; the “kobs, biphasic fit” value is reported as 0.21 s^− 1; the “rate constant (single exponential)” value is on record as 0.19 s^− 1. The dissociation constant (Kd) in data set [1] (read-out: Kd, site with negative enthalpy) is 54 µM. Moreover, the Kd in data set [1] (read-out: Kd, site with positive enthalpy) was 3.3 µM. Besides, the binding to rods entry at NM-MHC IIA rods is “micromolar affinity”. Also, the “M200 filamentous bundles after S100A4 addition” value in the data set with M200 filamentous bundles is recorded as “no trace of filamentous bundles was observed”.

As usually defined, the Kd is the free concentration of one partner at which half of the binding sites on the other are occupied at equilibrium, for simple one-to-one binding.
